IC50 data for 24 compounds are collected here from patent US10174007B2, “Substituted 3-azabicyclo[3.1.0]hexanes as ketohexokinase inhibitors” (Pfizer Inc., priority 2015, dated 2019).

The target in assay [1] is T1, KHK-C (Homo sapiens (Human), UniProt P50053). The assay can be described thus: Assay C: KHK assay at high fructose (8 mM) and ATP (2 mM), 1 nM KHK-C. It counts as biochemical.
Excerpt: (§1) A screening assay was developed for KHK involving a coupled enzyme system which used the product of the KHK reaction to drive an absorbance signal in kinetic mode. KHK takes fructose and ATP and converts it to F1P and ADP. ADP then serves as substrate to pyruvate kinase which converts PEP to pyruvate which is then reduced to lactate by lactate dehydrogenase with the concomitant oxidation of NADH to NAD+. The resulting depletion of NADH was monitored by measuring absorbance at 340 nm.
(§2) Recombinant human KHK-C and KHK-A were expressed in E. coli as a His-tagged fusion protein and purified using Ni-NTA chromatography.
A third KHK assay, referred to as Assay C, was performed at high fructose and ATP concentrations, conditions that would be more consistent with physiological concentrations of the natural substrates of the KHK enzyme. Assay C was conducted as described above for Assay B except using 8 mM fructose and 2 mM ATP, and compound concentration range of 10 pM to 1 μM or 50 pM to 5 μM using half-log dilution scheme.
For assay [2], the target named is T1, KHK-C. The assay can be described thus: Assay A: coupled-enzyme KHK absorbance assay, 10 nM KHK-C. The conditions noted are these: 10 nM KHK-C, 0.8 mM fructose, 0.2 mM ATP, avg of (#) runs.
Excerpt: as §1, §2
Compounds were prepared in DMSO as 4 mM stocks, diluted using an 11-point half-log scheme on a Biomek FX (Beckman Coulter), and incubated at rt for 30 minutes with the reaction mixture containing 50 mM HEPES, pH 7.4, 140 mM KCl, 3.5 mM MgCl2, 0.8 mM fructose, 2 mM TCEP, 0.8 mM PEP, 0.7 mM NADH, 0.01% Triton X-100, 30 U/mL pyruvate kinase-lactate dehydrogenase, and 10 nM purified KHK-C. The compound concentration in each well ranged from 1 nM to 100 μM. The reaction was initiated with the addition of 0.2 mM ATP. The absorbance was measured for 30 minutes on a SpectraMax reader (Molecular Devices) after ATP was added. The concentrations provided are based on the final mixture volume of 40 μL (referred to as the final concentration).
Controls: N8-(cyclopropylmethyl)-N4-(2-(methylthio)phenyl)-2-(piperazin-1-yl)pyrimido[5,4-d]pyrimidine-4,8-diamine at 2 μM final concentration was used as high percent effect (HPE) control, and 2.5% DMSO which was present in all reaction wells was used as zero percent effect (ZPE) control. Reaction rates were obtained for 300-1800 seconds time window in units of 1000*AU/min (absorbance unit per minute), and average values for ZPE and HPE controls from 16 wells each were calculated, AveZPE and AveHPE, respectively.
Percent inhibition (% inhibition) was calculated for each well using this equation:
For each compound tested, the IC50 provided is the average based on at least two separate assays conducted on separate days.
The target of assay [3] is T1, KHK-C. Put plainly: Assay B: KHK assay with 1 nM KHK-C, absorbance for 3 hours.
Excerpt: as §1
The reaction was initiated with addition of 0.2 mM ATP, and the absorbance was monitored for 3 hours at 340 nm. Reaction rates and IC50 values were calculated as described above.
Assay [4] addresses KHK-A (Homo sapiens (Human), UniProt P50053). Put plainly: Assay D: KHK assay with 1 nM human KHK-A. The settings on record: read-out: IC50 (nM) Assay D 1 nM KHK-A, 8 mM fructose, 0.2 mM ATP, avg of (#) runs.
Excerpt: as §1
A fourth assay, referred to as Assay D, was performed using human KHK-A to assess the potency of compounds in inhibiting activity of this enzyme. […] Reaction rates and IC50 values were calculated as described above.
The mark [5] stands for this setting: read-out: IC50 (nM) Assay A 10 nM KHK-C.
Where [6] appears, read: read-out: IC50 (nM) Assay A (Table 4).
Setting [7] is: read-out: IC50 (nM) Assay B 1 nM KHK-C, 1 nM KHK-C, 0.2 mM ATP, 3 hours, avg of (#) runs.

Chain of KHK-A (P50053 other isoform, or with tags, fused parts or gaps): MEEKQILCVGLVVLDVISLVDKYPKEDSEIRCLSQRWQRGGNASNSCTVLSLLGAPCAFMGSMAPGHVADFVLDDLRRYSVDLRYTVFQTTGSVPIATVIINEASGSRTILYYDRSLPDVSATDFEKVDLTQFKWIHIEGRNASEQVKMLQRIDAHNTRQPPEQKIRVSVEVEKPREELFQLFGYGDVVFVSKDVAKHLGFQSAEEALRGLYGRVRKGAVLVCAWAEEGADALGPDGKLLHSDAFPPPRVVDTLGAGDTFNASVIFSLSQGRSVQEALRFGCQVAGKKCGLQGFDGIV
T1 sequence (P50053 whole entry): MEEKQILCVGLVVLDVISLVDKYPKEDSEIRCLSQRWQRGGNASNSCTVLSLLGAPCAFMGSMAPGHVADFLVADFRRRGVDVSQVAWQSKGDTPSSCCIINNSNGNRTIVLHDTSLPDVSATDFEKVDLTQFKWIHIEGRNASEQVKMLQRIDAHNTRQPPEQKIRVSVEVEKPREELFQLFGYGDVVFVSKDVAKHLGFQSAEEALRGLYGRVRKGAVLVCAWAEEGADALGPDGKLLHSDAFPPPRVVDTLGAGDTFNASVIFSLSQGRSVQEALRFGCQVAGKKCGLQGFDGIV

The IC50 is the concentration that gives 50% inhibition. `C[C@H]1[C@H](O)CN1c1nc(N2C[C@@H]3[C@@H](CC(=O)O)[C@@H]3C2)c(Cl)c(C(F)(F)F)c1C#N` [Example 2, [(1R,5S,6R)-3-{3-chloro-5-cyano-6-[(2S,3R)-3-hydroxy-2-methylazetidin-1-yl]-4-(trifluoromethyl)pyridin-2-yl}-3-azabicyclo[3.1.0]hex-6-yl]acetic acid]: the IC50 stood at 3.6 nM in assay [1] (8 mM fructose, 2 mM ATP, avg of (#) runs); 6.8 nM in assay [2] (setting [5]); 1.5 nM in assay [3].

With `C[C@H]1[C@H](O)CN1c1cc(N2C[C@@H]3[C@@H](CC(=O)O)[C@@H]3C2)nc(C(F)(F)F)n1` [Example 32, [(1R,5S,6R)-3-{6-[(2S,3R)-3-hydroxy-2-methylazetidin-1-yl]-2-(trifluoromethyl)pyrimidin-4-yl}-3-azabicyclo[3.1.0]hex-6-yl]acetic acid], in assay [2] (setting [6]), the IC50 amounted to 1760 nM.

As for `Cc1c(N2C[C@@H]3[C@@H](CC(=O)O)[C@@H]3C2)nc(N2C[C@@H](O)[C@@H]2C)nc1C(C)(F)F` [Example 33, [(1R,5S,6R)-3-{6-(1,1-difluoroethyl)-2-[(2S,3R)-3-hydroxy-2-methylazetidin-1-yl]-5-methylpyrimidin-4-yl}-3-azabicyclo[3.1.0]hex-6-yl]acetic acid], in assay [2] (setting [6]), the IC50 is 114 nM.

As for `C[C@H]1[C@H](O)CN1c1cc(N2C[C@@H]3[C@@H](CC(=O)O)[C@@H]3C2)cc(C(C)(F)F)n1` [Example 34, [(1R,5S,6R)-3-{2-(1,1-difluoroethyl)-6-[(2S,3R)-3-hydroxy-2-methylazetidin-1-yl]pyridin-4-yl}-3-azabicyclo[3.1.0]hex-6-yl]acetic acid], in assay [2] (setting [6]), the IC50 was 331 nM.

For the compound `C[C@H]1C[C@H](O)CN1c1nc(N2C[C@@H]3[C@@H](CC(=O)O)[C@@H]3C2)c(Cl)c(C(F)(F)F)n1` [Example 35, [(1R,5S,6R)-3-{5-chloro-2-[(2S,4S)-4-hydroxy-2-methylpyrrolidin-1-yl]-6-(trifluoromethyl)pyrimidin-4-yl}-3-azabicyclo[3.1.0]hex-6-yl]acetic acid], in assay [2] (setting [6]), the IC50 was found to be 188 nM.

On to `C[C@@H]1N(c2nc(C(F)F)c(Cl)c(N3C[C@@H]4[C@@H](CC(=O)O)[C@@H]4C3)n2)C[C@@]1(C)O` [Example 36, [(1R,5S,6R)-3-{5-chloro-6-(difluoromethyl)-2-[(2S,3R)-3-hydroxy-2,3-dimethylazetidin-1-yl]pyrimidin-4-yl}-3-azabicyclo[3.1.0]hex-6-yl]acetic acid], for which, in assay [2] (setting [6]), the IC50 came to 103 nM.

As for `N#Cc1c(C(F)F)cc(N2C[C@@H]3[C@@H](CC(=O)O)[C@@H]3C2)nc1N1CCCC1` [Example 37, {(1R,5S,6s)-3-[5-cyano-4-(difluoromethyl)-6-(pyrrolidin-1-yl)pyridin-2-yl]-3-azabicyclo[3.1.0]hex-6-yl}acetic acid], in assay [2] (setting [6]), the IC50 came out at 58.3 nM.

Turning to `CC1CCCN1c1nc(N2C[C@@H]3[C@@H](CC(=O)O)[C@@H]3C2)cc(C(F)F)c1C#N` (stereo partly drawn) [Example 38, {(1R,5S,6s)-3-[5-cyano-4-(difluoromethyl)-6-(2-methylpyrrolidin-1-yl)pyridin-2-yl]-3-azabicyclo[3.1.0]hex-6-yl}acetic acid], in assay [2] (setting [6]), the IC50 came to 25.3 nM.

Turning to `CC1CCCCN1c1nc(N2C[C@@H]3[C@@H](CC(=O)O)[C@@H]3C2)cc(C(F)(F)F)n1` (stereo partly drawn) [Example 39, {(1R,5S,6s)-3-[2-(2-methylpiperidin-1-yl)-6-(trifluoromethyl)pyrimidin-4-yl]-3-azabicyclo[3.1.0]hex-6-yl}acetic acid], the IC50 in assay [2] (setting [6]) is 24.8 nM.

As for `C[C@H]1CCN1c1nc(C(F)F)c(Cl)c(N2C[C@@H]3[C@@H](CC(=O)O)[C@@H]3C2)n1` [Example 40, [(1R,5S,6R)-3-{5-chloro-6-(difluoromethyl)-2-[(2S)-2-methylazetidin-1-yl]pyrimidin-4-yl}-3-azabicyclo[3.1.0]hex-6-yl]acetic acid], the IC50 in assay [4] was 37.9 nM; in assay [2] (setting [5]), 11.1 nM; in assay [2] (setting [6]), 11.1 nM; in assay [3] (setting [7]) it was 3.7 nM.

For `CCc1c(C(F)F)nc(N2C[C@@H](O)[C@@H]2C)nc1N1C[C@@H]2[C@@H](CC(=O)O)[C@@H]2C1` [Example 41, [(1R,5S,6R)-3-{6-(difluoromethyl)-5-ethyl-2-[(2S,3R)-3-hydroxy-2-methylazetidin-1-yl]pyrimidin-4-yl}-3-azabicyclo[3.1.0]hex-6-yl]acetic acid], in assay [2] (setting [6]), the IC50 was found to be 111 nM.

For the compound `Cc1c(N2C[C@@H]3[C@@H](CC(=O)O)[C@@H]3C2)nc(N2CC[C@@H]2C)nc1C(F)(F)F` [Example 42, [(1R,5S,6R)-3-{5-methyl-2-[(2S)-2-methylazetidin-1-yl]-6-(trifluoromethyl)pyrimidin-4-yl}-3-azabicyclo[3.1.0]hex-6-yl]acetic acid], the IC50 in assay [4] was 10.5 nM; in assay [2] (setting [5]), 8.8 nM; in assay [2] (setting [6]) it was 8.8 nM; in assay [3] (setting [7]) it was 2.4 nM.

Turning to `Cc1c(C(F)F)nc(N2CC[C@@H]2C)nc1N1C[C@@H]2[C@@H](CC(=O)O)[C@@H]2C1` [Example 43, [(1R,5S,6R)-3-{6-(difluoromethyl)-5-methyl-2-[(2S)-2-methylazetidin-1-yl]pyrimidin-4-yl}-3-azabicyclo[3.1.0]hex-6-yl]acetic acid], the IC50 was determined as 48.6 nM in assay [4], 17.8 nM in assay [2] (setting [5]), 17.8 nM in assay [2] (setting [6]) and 8 nM in assay [3] (setting [7]).

Turning to `Cc1c(N2C[C@@H]3[C@@H](CC(=O)O)[C@@H]3C2)nc(N2CC[C@@H]2C)nc1C(C)(F)F` [Example 44, [(1R,5S,6R)-3-{6-(1,1-difluoroethyl)-5-methyl-2-[(2S)-2-methylazetidin-1-yl]pyrimidin-4-yl}-3-azabicyclo[3.1.0]hex-6-yl]acetic acid], in assay [2] (setting [6]), the IC50 came out at 51.4 nM.

As to `C[C@H]1[C@H](O)CN1c1nc(C(F)F)c(C2CC2)c(N2C[C@@H]3[C@@H](CC(=O)O)[C@@H]3C2)n1` [Example 45, [(1R,5S,6R)-3-{5-cyclopropyl-6-(difluoromethyl)-2-[(2S,3R)-3-hydroxy-2-methylazetidin-1-yl]pyrimidin-4-yl}-3-azabicyclo[3.1.0]hex-6-yl]acetic acid], in assay [2] (setting [6]), the IC50 turned out to be 238 nM.

Turning to `N#Cc1c(C(F)(F)F)cc(N2C[C@@H]3[C@@H](CC(=O)O)[C@@H]3C2)nc1N1CCC1` [Example 46, {(1R,5S,6s)-3-[6-(azetidin-1-yl)-5-cyano-4-(trifluoromethyl)pyridin-2-yl]-3-azabicyclo[3.1.0]hex-6-yl}acetic acid], the IC50 in assay [2] (setting [6]) came to 21.5 nM.

As to `O=C(O)C[C@@H]1[C@H]2CN(c3cc(C(F)(F)F)nc(N4CCC4)n3)C[C@@H]12` [Example 47, {(1R,5S,6s)-3-[2-(azetidin-1-yl)-6-(trifluoromethyl)pyrimidin-4-yl]-3-azabicyclo[3.1.0]hex-6-yl}acetic acid], the IC50 in assay [2] (setting [6]) was 619 nM.

On to `C[C@@H]1N(c2nc(N3C[C@@H]4[C@H](C3)[C@H]4CS(C)(=O)=O)c(Cl)c(C(F)(F)F)n2)C[C@@]1(C)O` [Example 48, (2S,3R)-1-[5-chloro-4-{(1R,5S,6S)-6-[(methylsulfonyl)methyl]-3-azabicyclo[3.1.0]hex-3-yl}-6-(trifluoromethyl)pyrimidin-2-yl]-2,3-dimethylazetidin-3-ol], for which the IC50 in assay [2] (setting [6]) is 1360 nM.

In the case of `C[C@H]1[C@H](O)CN1c1nc(N2C[C@@H]3[C@@H](CC(=O)O)[C@@H]3C2)c(F)c(C(C)(F)F)c1C#N` [Example 50, [(1R,5S,6R)-3-{5-cyano-4-(1,1-difluoroethyl)-3-fluoro-6-[(2S,3R)-3-hydroxy-2-methylazetidin-1-yl]pyridin-2-yl}-3-azabicyclo[3.1.0]hex-6-yl]acetic acid], the IC50 in assay [1] (read-out: IC50 (nM) Assay C 1 nM KHK-C, 8 mM fructose, 2 mM ATP, avg of (#) runs) was 2.6 nM; in assay [2] (setting [5]), 4.4 nM; in assay [2] (setting [6]), 4.4 nM; in assay [3] (setting [7]) it was 1.5 nM.

On to `N#Cc1c(C(F)F)cc(N2C[C@@H]3[C@@H](CC(=O)O)[C@@H]3C2)nc1NC1CCC1` [Example 51, {(1R,5S,6s)-3-[5-cyano-6-(cyclobutylamino)-4-(difluoromethyl)pyridin-2-yl]-3-azabicyclo[3.1.0]hex-6-yl}acetic acid], for which the half-maximal inhibitory concentration (IC50) in assay [2] (setting [6]) came to 150 nM.

On to `C[C@H]1[C@H](O)CN1c1nc(N2C[C@@H]3[C@@H](CCC(=O)O)[C@@H]3C2)cc(C(F)(F)F)c1C#N` [Example 52, 3-[(1R,5S,6R)-3-{5-cyano-6-[(2S,3R)-3-hydroxy-2-methylazetidin-1-yl]-4-(trifluoromethyl)pyridin-2-yl}-3-azabicyclo[3.1.0]hex-6-yl]propanoic acid], for which the IC50 in assay [2] (setting [6]) is 82.5 nM.

As to `C[C@H]1[C@H](O)CN1c1nc(N2C[C@@H]3[C@@H](CC(=O)O)[C@@H]3C2)c(C#N)c(C(F)(F)F)n1` [Example 53, [(1R,5S,6R)-3-{5-cyano-2-[(2S,3R)-3-hydroxy-2-methylazetidin-1-yl]-6-(trifluoromethyl)pyrimidin-4-yl}-3-azabicyclo[3.1.0]hex-6-yl]acetic acid], the IC50 in assay [2] (setting [6]) was determined as 21 nM.

Consider `C[C@H]1[C@H](O)CN1c1nc(N2C[C@@H]3[C@@H](CC(=O)O)[C@@H]3C2)nc(C(F)(F)F)c1C#N` [Example 54, [(1R,5S,6R)-3-{5-cyano-4-[(2S,3R)-3-hydroxy-2-methylazetidin-1-yl]-6-(trifluoromethyl)pyrimidin-2-yl}-3-azabicyclo[3.1.0]hex-6-yl]acetic acid], for which the IC50 in assay [2] (setting [6]) stood at 19 nM.

With `C[C@@H]1N(c2nc(N3C[C@@H]4[C@@H](CC(=O)O)[C@@H]4C3)cc(C(F)F)c2C#N)C[C@@]1(C)O` [Example 55, [(1R,5S,6R)-3-{5-cyano-4-(difluoromethyl)-6-[(2S,3R)-3-hydroxy-2,3-dimethylazetidin-1-yl]pyridin-2-yl}-3-azabicyclo[3.1.0]hex-6-yl]acetic acid], the IC50 in assay [2] (setting [6]) was found to be 13.7 nM.
